Measured values taken from PMC3454389, “Mining the Sinorhizobium meliloti Transportome to Develop FRET Biosensors for Sugars, Dicarboxylates and Cyclic Polyols” (PLoS ONE, 2012).
pKd: −log10 of the molar value.

How the values were obtained:
SMc04259-CY = SMc04259-CY (Sinorhizobium meliloti, UniProt Q92P64); experiment: FRET biosensor SMc04259-CY, in vitro ligand titration; assay type: binding; conditions: SMc04259-CY
Method: (§1) Ligand-induced FRET ratio changes of purified FRET biosensor were screened using a LS55 luminescence spectrometer (PerkinElmer Instruments). Excitation (ex.) was at (λ/slit width) 433/10 nm (CFP) or 549/10 nm (OFP). Emission (em.) was measured at 475/10 nm (CFP), 527/10 nm (YFP), 573/10 nm (OFP) and 644/10 nm (RFP). To confirm that Aphrodite and mKate2 were properly folded their fluorescence was individually tested by direct excitation at 510/6 nm and 588/10 nm respectively.
(§2) Affinity constants (Kd) of FRET biosensors with specific ligands were established using a monochromator microplate reader (Safire, Tecan, Switzerland; CFP ex.: (λ\bandwidth) 433/12 nm, em.: 475/12 nm; YFP em.: 527/12 nm. OFP ex.: 533/12 nm, em.: 563/12 nm; RFP em.: 615/12 nm). Proteins were diluted to give relative fluorescence units (RFU) in the detection range of 30,000 to 50,000 RFU at a gain of 90 to 100, and then were added to a dilution series (10^−3 to 10^−11 M) of ligand in Tris-HCl (pH 8.5, 50 mM). The change in relative emission intensities at 527/477 nm (YFP/CFP) or 615/563 nm (RFP/OFP) was used to determine Kd by fitting the titration curves to a single-site-binding isotherm: [drawing 1] with: R, ratio; Rapo, ratio without ligand; Rsat, ratio at saturation of ligand; n, number of equal binding sites; [L], ligand concentration. Non-linear regression was used to fit the curves using SigmaPlot 11 (Systat Software Inc.) (Hill equation, 4 Parameters, b = 1). All measurements were done in quadruplicate.

SMc04259-RO = experiment: SMc04259-RO, FRET ratio change on ligand; assay type: binding, Sinorhizobium meliloti
Method: as §1
as §2, with “Non-linear regression was used to fit the curves using SigmaPlot 11 (Systat Software Inc.) (Hill equation, 4 Parameters, b = 1). All measurements were done in quadruplicate.” left out

rcc03024-CY (DctP) = biological target: T1, rcc03024-CY (DctP) (Rhodobacter capsulatus, UniProt P37735); experiment: FRET biosensor rcc03024-CY, in vitro ligand titration; assay type: binding; conditions: for pKd: pCYS (pLMB414), Tris-HCl pH 8.5
T1 construct: made in house; host or cells: E. coli Rosetta2
T1 sequence (P37735 27-333): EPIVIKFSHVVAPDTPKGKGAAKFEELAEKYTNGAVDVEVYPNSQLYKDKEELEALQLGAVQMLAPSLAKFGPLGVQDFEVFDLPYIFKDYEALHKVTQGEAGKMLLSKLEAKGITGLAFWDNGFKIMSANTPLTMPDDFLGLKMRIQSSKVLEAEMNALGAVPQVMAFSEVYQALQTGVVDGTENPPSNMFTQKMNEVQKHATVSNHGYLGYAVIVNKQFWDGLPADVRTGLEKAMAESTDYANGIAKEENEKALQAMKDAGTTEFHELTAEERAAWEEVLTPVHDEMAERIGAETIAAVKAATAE
Source text: Ligand-induced FRET ratio changes of purified FRET biosensor were screened using a LS55 luminescence spectrometer (PerkinElmer Instruments).
Non-linear regression was used to fit the curves using SigmaPlot 11 (Systat Software Inc.) (Hill equation, 4 Parameters, b = 1). All measurements were done in quadruplicate.

SMc02324-CY = SMc02324-CY (Sinorhizobium meliloti, UniProt Q92S11); experiment: FRET biosensor SMc02324-CY, in vitro ligand titration; assay type: binding; conditions: SMc02324-CY
Chain of SMc02324-CY (Q92S11 entry or part of it): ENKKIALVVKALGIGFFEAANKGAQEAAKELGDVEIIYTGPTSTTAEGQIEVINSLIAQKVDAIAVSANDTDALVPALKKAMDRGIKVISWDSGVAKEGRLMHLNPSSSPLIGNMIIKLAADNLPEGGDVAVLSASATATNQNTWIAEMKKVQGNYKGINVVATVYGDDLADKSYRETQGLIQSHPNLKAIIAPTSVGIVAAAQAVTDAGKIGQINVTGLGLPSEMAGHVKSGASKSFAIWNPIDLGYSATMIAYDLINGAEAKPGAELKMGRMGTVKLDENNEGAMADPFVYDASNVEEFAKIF
Method: as §1, §2

SMb20036-CY = SMb20036-CY (Sinorhizobium meliloti, UniProt Q92XC3); experiment: biochemical; assay type: binding; conditions: compounds similar in structure to D-quinic acid
Chain of SMb20036-CY (Q92XC3 entry or part of it): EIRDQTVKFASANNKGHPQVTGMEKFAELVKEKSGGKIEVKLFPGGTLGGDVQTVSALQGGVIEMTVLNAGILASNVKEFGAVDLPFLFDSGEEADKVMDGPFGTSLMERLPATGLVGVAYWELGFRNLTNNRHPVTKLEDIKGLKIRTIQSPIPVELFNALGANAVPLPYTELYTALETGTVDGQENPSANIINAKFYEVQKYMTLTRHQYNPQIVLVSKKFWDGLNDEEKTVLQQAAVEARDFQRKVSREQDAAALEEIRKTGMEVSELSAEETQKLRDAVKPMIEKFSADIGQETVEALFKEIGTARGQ
Method: as §1, §2

rcc03024-RO = biological target: T2, rcc03024-RO (Rhodobacter capsulatus, UniProt P37735); experiment: rcc03024-RO, FRET ratio change on ligand; assay type: binding
T2 construct: made in house; host or cells: E. coli Rosetta2
T2 sequence (P37735 27-333): T1 sequence (P37735 27-333)
Method: as §1
as §2, with “Non-linear regression was used to fit the curves using SigmaPlot 11 (Systat Software Inc.) (Hill equation, 4 Parameters, b = 1). All measurements were done in quadruplicate.” left out

[1] = biological target: T3, eCFP-MglB-Aphrodite fusion protein (Escherichia coli, UniProt P0AEE5, F39A); conditions: MglB sensors, depended on linker length; cited from earlier work
T3 construct: MglB core from pFLIPglu600µΔ13 - SpeI - BD cloning in pCYS - For; made in house; host or cells: E. coli Rosetta2
T3 sequence (P0AEE5 24-332 F39A limits assumed): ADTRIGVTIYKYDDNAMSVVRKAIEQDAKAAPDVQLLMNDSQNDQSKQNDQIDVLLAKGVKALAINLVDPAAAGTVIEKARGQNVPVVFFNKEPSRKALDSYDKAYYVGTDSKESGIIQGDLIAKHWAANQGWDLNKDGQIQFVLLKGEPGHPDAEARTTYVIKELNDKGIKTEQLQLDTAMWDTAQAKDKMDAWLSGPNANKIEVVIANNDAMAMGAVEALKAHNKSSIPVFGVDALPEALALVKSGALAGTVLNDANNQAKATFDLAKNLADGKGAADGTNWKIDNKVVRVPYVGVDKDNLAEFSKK

[2] = biological target: T3, eCFP-MglB-Aphrodite fusion protein; experiment: Validation of pCYS with glucose binding protein MglB FRET fusion; conditions: purified eCFP-MglB-Aphrodite from pLMB240 (pCYS)
Method: The FRET vector pCYS was tested by inserting the glucose binding protein from Escherichia coli (MglB). This SBP was reported to have a FRET Δ ratio ranging from −8% to −28% upon binding of glucose that depended on linker length. The purified eCFP-MglB-Aphrodite fusion protein from pLMB240 (Table S1) gave a FRET Δ ratio of −19%, thus validating this vector and the choice of short linkers (of four and three amino acids) which we had incorporated into its design (Fig. 1B).
as §1

RL2376-CY = biological target: T4, RL2376-CY (Rhizobium leguminosarum, UniProt Q1MGQ3); experiment: FRET biosensor RL2376-CY, in vitro ligand titration; assay type: binding
T4 sequence (Q1MGQ3 24-320): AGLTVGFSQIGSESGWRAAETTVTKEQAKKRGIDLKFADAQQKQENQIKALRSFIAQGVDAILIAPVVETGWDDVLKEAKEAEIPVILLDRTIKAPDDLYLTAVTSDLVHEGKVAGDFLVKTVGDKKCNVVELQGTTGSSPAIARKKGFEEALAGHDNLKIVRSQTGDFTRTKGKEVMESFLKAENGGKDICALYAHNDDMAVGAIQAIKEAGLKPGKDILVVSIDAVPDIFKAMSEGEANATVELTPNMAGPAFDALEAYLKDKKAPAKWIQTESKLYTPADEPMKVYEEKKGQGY
Method: as §1, §2

SMb20712-CY = biological target: T5, SMb20712-CY (Sinorhizobium meliloti, UniProt Q926E6); experiment: FRET biosensor SMb20712-CY, in vitro ligand titration; assay type: binding
T5 sequence (Q926E6 21-309): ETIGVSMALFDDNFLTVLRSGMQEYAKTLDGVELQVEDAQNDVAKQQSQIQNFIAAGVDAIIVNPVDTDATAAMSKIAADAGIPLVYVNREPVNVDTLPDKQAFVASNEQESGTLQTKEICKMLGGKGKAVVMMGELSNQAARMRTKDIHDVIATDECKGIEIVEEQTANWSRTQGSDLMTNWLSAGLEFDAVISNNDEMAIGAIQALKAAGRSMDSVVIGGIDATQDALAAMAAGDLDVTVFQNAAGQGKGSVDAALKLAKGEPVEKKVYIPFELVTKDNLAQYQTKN
Method: as §1, §2

SMc02324-RO = SMc02324-RO (Sinorhizobium meliloti, UniProt Q92S11); experiment: FRET biosensor SMc02324-RO, in vitro ligand titration; assay type: binding; conditions: pROS (pLMB523), Tris-HCl pH 8.5
Chain of SMc02324-RO (Q92S11 entry or part of it): as the sequence (Q92S11 entry or part of it) above
Method: as §1
as §2, with “Non-linear regression was used to fit the curves using SigmaPlot 11 (Systat Software Inc.) (Hill equation, 4 Parameters, b = 1). All measurements were done in quadruplicate.” left out

SMc02774-CY = SMc02774-CY (Sinorhizobium meliloti, UniProt Q92TD7); experiment: FRET biosensor SMc02774-CY, in vitro ligand titration; assay type: binding
Chain of SMc02774-CY (Q92TD7 entry or part of it): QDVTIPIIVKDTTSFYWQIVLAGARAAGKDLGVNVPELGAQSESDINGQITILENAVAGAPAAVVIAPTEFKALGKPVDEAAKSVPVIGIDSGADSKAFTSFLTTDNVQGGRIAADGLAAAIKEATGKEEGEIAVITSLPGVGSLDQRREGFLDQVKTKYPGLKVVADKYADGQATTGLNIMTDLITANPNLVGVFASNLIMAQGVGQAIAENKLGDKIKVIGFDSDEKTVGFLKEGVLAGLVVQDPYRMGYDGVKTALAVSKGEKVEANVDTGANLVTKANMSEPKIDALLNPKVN
Method: as §1, §2

Chain of SMc04259-CY (Q92P64 entry or part of it): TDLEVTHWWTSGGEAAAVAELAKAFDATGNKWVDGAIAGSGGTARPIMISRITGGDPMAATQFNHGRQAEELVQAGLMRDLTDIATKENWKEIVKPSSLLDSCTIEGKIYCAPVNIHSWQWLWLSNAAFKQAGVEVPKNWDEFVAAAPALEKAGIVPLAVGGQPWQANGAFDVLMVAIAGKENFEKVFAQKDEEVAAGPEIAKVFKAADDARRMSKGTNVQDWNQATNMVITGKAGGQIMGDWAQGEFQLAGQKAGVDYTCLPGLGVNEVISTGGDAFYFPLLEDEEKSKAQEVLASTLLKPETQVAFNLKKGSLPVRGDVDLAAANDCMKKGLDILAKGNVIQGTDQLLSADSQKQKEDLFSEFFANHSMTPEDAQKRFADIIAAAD

For OC[C@H]1OC(O)[C@@H](O)[C@@H](O)[C@@H]1O (stereo partly drawn) [mannose], the “change in FRET with compound” value (SMc04259-CY) was “no change in FRET”.

For gentiobiose, the “change in FRET ratio on binding ligand” value (SMc04259-RO) was “no change in FRET ratio”.

O=C(O)CC(=O)C(=O)O [oxaloacetate] showed a pKd (rcc03024-CY (DctP)) of 4.80.

With OC[C@@H](O)[C@H](O)[C@H](O)[C@@H](O)CO [dulcitol] the “reaction of biosensor with compound (FRET)” value (from here on “reaction of biosensor”) (SMc02324-CY) was “did not react”.

For O=C(O)CC(O)(CC(=O)O)C(=O)O [citrate], the “change in FRET ratio on addition of compound” value (rcc03024-CY (DctP)) was “no change in FRET ratio”.

For O=C(O)c1cc(O)c(O)c(O)c1 [gallic acid], the “change in FRET ratio on addition of compound” value (SMb20036-CY) was “no change in FRET ratio”.

In the case of O=C(O)C[C@H](O)C(=O)O [L-malate], the pKd (rcc03024-CY (DctP)) was 7.15 and the “change in FRET ratio on binding ligand” value (rcc03024-RO) was “no change in FRET ratio”.

For O=C(CO)[C@@H](O)[C@@H](O)[C@H](O)CO [tagatose], the “reaction of biosensor” value (SMc02324-CY) was “did not react”.

In the case of O=C(O)CCC(=O)C(=O)O [α-ketoglutarate], the “change in FRET ratio on addition of compound” value (rcc03024-CY (DctP)) was “no change in FRET ratio”.

In the case of OC[C@H]1OC(O)[C@H](O)[C@@H](O)[C@@H]1O (stereo partly drawn) [glucose], the “FRET Δ ratio upon binding of glucose” value [1] is listed as −8% to −28%, the “change in FRET with compound” value (SMc04259-CY) is listed as “no change in FRET” and the “FRET Δ ratio” value [2] is listed as −19%. The “change in FRET ratio on addition of compound” value (RL2376-CY) was “no change in FRET ratio”.

With O[C@H]1[C@H](O)[C@@H](O)[C@H](O)[C@@H](O)[C@H]1O [myo-inositol] the pKd (SMb20712-CY; pCYS (pLMB319), Tris-HCl pH 8.5) was 6.33.

With [2H]C(=O)C[C@H](O)[C@H](O)CO [deoxy-D-ribose] the “reaction of biosensor” value (SMc02324-CY) was “did not react”.

With C[C@H](O)[C@@H](O)[C@@H](O)[C@H](O)C=O [L-fucose] the pKd (SMc02324-CY; pCYS (pLMB291), Tris-HCl pH 8.5) was 4.96, the pKd (SMc02324-RO) was 4.72 and the “difference between the affinity of SMc02774-CY for L-fucose compared to its affinity for L-rhamnose” value (SMc02774-CY) was “three order-magnitude difference”. The pKd (SMc02774-CY; SMc02774-CY, pCYS (pLMB292), Tris-HCl pH 8.5) was 8.44.

With O=C(O)/C=C\C(=O)O [maleate] the “change in FRET ratio on addition of compound” value (rcc03024-CY (DctP)) was “no change in FRET ratio”.

For OC[C@H]1O[C@@H](O[C@H]2[C@H](O)[C@@H](O)[C@H](O)O[C@@H]2CO)[C@H](O)[C@@H](O)[C@H]1O [lactose], the “change in FRET with compound” value (SMc04259-CY) was “no change in FRET”.

In the case of O=P(O)(O)O[C@H]1[C@H](OP(=O)(O)O)[C@@H](OP(=O)(O)O)[C@H](OP(=O)(O)O)[C@@H](OP(=O)(O)O)[C@H]1OP(=O)(O)O [phytic acid], the “reaction of biosensor” value (SMb20712-CY) was “did not react”.

In the case of OC[C@H]1O[C@H](O[C@H]2[C@H](O)[C@@H](O)[C@H](O)O[C@@H]2CO)[C@H](O)[C@@H](O)[C@@H]1O [maltose], the “change in FRET with compound” value (SMc04259-CY) was “no change in FRET”.
